{"source": "paper PMC4247381", "about": "“Control of somatic membrane potential in nociceptive neurons and its implications for peripheral nociceptive transmission” (Pain, 2014)", "key": {"Kv7.2/Kv7.3": {"biological_target": "T1, Kv7.2/Kv7.3 (Homo sapiens, UniProt O43525+O43526)", "T1 construct": "gene KCNQ2; with Kv7.3 (KCNQ3)", "T1 sequence (O43526 whole entry)": "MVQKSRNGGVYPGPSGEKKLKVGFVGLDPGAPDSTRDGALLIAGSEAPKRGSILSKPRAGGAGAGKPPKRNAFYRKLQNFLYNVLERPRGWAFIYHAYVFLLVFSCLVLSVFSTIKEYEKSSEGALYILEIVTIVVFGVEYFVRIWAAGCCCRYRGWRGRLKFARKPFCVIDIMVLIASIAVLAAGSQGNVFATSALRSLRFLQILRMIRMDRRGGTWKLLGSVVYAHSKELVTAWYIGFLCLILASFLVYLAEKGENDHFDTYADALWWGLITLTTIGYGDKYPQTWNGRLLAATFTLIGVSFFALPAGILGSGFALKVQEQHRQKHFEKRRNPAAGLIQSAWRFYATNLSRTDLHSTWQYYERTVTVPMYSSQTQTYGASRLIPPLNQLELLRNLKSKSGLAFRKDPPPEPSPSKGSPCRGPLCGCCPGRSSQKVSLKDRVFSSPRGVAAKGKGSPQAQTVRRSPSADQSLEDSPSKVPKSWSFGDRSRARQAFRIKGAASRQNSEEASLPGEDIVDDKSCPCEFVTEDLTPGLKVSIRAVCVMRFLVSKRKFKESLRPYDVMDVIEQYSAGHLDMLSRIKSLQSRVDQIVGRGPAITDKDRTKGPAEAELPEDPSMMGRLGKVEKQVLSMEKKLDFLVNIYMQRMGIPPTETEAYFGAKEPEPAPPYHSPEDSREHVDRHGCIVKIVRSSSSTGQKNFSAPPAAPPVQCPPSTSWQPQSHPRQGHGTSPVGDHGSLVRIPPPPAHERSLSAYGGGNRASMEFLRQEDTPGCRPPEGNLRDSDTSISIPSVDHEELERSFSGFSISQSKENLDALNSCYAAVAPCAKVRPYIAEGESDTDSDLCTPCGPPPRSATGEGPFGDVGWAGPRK", "T1 sequence (O43525 whole entry)": "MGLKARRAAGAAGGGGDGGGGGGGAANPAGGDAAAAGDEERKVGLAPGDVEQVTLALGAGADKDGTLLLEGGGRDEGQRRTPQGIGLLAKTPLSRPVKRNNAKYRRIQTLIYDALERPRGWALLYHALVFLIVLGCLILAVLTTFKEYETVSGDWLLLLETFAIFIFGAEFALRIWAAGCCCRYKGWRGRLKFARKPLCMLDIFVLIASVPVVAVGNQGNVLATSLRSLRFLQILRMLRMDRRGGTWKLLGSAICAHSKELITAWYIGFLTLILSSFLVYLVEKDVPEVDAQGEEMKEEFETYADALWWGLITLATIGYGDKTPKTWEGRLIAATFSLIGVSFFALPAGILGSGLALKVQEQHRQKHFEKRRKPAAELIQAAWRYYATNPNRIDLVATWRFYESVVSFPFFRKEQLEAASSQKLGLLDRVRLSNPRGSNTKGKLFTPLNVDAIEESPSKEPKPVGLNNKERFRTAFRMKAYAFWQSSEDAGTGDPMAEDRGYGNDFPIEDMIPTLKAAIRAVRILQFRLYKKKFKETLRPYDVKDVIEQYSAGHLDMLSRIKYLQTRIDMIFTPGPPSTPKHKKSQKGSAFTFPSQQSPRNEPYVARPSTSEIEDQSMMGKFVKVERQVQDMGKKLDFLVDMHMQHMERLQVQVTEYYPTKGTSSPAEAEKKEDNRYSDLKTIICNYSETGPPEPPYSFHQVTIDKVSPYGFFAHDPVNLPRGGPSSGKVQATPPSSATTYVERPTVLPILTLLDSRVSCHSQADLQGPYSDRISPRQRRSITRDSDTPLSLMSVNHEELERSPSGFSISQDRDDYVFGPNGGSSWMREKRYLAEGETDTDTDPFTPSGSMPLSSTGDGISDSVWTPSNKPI", "assay": "Rb+ efflux assay and whole-cell patch clamp in CHO cells expressing Kv7.[…]/Kv7.[…] (activator)", "format": "cell-based"}, "Cav3.2": {"biological_target": "T2, Cav3.2 (Homo sapiens, UniProt O95180)", "T2 construct": "gene CACNA1H", "T2 sequence (O95180 whole entry)": "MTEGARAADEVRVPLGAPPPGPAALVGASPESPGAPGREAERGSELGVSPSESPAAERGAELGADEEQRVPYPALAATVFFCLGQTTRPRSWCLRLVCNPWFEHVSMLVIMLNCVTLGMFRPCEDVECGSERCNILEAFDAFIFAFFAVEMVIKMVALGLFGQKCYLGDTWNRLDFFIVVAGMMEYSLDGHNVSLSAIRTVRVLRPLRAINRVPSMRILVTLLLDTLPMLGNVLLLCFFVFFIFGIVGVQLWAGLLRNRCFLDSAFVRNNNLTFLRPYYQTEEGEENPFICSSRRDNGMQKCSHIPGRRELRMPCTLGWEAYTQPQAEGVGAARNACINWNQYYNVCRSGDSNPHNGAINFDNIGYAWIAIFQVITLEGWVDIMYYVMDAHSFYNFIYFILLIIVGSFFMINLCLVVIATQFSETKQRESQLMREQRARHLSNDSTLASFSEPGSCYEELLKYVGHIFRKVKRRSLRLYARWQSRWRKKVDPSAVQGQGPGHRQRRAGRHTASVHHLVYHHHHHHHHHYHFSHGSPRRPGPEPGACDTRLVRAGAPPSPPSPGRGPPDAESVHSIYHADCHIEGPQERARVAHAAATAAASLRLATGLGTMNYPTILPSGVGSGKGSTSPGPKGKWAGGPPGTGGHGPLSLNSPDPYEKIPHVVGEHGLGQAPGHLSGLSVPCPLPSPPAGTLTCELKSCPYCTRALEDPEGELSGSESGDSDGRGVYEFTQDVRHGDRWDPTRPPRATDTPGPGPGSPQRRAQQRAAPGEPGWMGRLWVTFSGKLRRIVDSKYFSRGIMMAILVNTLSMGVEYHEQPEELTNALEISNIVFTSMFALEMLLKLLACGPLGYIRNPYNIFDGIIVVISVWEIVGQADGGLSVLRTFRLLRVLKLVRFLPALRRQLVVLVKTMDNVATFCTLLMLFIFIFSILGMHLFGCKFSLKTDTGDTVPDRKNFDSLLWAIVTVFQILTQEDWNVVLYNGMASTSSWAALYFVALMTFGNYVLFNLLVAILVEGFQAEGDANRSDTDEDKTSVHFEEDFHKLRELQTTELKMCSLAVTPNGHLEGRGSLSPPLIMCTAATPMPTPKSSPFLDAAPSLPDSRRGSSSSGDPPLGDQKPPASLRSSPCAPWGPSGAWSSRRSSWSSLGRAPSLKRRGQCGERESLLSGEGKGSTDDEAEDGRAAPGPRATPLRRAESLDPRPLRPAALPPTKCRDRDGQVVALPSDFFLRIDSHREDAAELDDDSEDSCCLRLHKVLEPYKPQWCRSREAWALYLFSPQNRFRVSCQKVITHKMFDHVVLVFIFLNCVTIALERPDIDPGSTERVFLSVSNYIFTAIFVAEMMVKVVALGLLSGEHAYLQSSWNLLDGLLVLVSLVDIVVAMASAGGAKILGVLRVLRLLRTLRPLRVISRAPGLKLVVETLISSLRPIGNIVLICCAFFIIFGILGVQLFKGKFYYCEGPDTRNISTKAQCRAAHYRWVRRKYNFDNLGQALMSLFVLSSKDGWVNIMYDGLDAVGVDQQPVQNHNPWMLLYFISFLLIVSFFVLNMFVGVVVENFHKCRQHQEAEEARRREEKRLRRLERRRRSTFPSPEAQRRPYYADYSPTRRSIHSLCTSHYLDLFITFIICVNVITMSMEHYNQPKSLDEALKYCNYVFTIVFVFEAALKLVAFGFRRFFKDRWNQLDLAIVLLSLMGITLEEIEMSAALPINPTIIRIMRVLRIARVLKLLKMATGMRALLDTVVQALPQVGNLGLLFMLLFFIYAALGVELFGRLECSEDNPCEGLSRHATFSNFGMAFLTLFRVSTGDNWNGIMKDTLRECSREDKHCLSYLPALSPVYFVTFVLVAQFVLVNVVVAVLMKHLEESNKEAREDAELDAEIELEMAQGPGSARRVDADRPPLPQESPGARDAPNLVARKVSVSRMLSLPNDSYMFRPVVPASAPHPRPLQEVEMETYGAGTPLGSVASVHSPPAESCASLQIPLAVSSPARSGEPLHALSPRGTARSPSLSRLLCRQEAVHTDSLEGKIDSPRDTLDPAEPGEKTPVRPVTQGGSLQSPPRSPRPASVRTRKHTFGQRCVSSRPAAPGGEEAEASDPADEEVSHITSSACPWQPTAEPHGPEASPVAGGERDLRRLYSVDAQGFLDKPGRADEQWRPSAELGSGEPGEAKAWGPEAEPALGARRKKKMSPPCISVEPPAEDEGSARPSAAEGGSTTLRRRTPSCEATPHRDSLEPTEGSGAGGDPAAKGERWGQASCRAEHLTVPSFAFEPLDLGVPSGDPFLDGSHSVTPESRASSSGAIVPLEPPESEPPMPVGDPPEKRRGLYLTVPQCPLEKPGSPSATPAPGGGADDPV", "assay": "whole-cell patch clamp of recombinant human Cav3.[…] in HEK293 cells (enhancer)", "format": "cell-based"}}, "note": "Like-named read-outs stand apart in the source and are kept apart here."}
{"compound": "Oc1c(Cl)cc(Cl)cc1Sc1cc(Cl)cc(Cl)c1O", "note": "[BITH, Bithionol]", "values": [{"measurement": "EC50", "setting": "Kv7.2/Kv7.3; read-out: EC50", "result": "4900 ± 1080", "unit": "nM"}]}
{"compound": "CCOC(=O)Nc1ccc(NCc2ccc(F)cc2)cc1N", "note": "[RTG, Retigabine]", "values": [{"measurement": "EC50", "setting": "Kv7.2/Kv7.3", "result": "700 ± 90", "unit": "nM"}]}
{"compound": "O=C1N=C2C=CC=CN2C12Cc1ccccc1C2", "note": "[ST101, spiro[imidazo[1,2-a]pyridine-3,2-indan]-2(3H)-one]", "values": [{"measurement": "EC50", "setting": "Cav3.2", "result": "0.12 ± 0.04", "unit": "nM"}]}
